Data reported in PMC6272448, “Synthesis, ^18F-Radiolabelling and Biological Characterization of Novel Fluoroalkylated Triazine Derivatives for in Vivo Imaging of Phosphodiesterase 2A in Brain via Positron Emission Tomography” (Molecules, 2015).
pIC50: −log10 of the molar value. Where two headings read alike, the source gives them in different places.

Experiments:
hPDE2A = details: cited from earlier work
human recombinant PDE10A = human recombinant PDE10A (Homo sapiens, UniProt Q9Y233); assay: enzyme assay, inhibitory potency for human recombinant PDE10A; assay type: biochemical; details: enzyme assay (BioCrea), read-out: IC50 hPDE10A
human recombinant PDE10A, sequence (Q9Y233 whole entry): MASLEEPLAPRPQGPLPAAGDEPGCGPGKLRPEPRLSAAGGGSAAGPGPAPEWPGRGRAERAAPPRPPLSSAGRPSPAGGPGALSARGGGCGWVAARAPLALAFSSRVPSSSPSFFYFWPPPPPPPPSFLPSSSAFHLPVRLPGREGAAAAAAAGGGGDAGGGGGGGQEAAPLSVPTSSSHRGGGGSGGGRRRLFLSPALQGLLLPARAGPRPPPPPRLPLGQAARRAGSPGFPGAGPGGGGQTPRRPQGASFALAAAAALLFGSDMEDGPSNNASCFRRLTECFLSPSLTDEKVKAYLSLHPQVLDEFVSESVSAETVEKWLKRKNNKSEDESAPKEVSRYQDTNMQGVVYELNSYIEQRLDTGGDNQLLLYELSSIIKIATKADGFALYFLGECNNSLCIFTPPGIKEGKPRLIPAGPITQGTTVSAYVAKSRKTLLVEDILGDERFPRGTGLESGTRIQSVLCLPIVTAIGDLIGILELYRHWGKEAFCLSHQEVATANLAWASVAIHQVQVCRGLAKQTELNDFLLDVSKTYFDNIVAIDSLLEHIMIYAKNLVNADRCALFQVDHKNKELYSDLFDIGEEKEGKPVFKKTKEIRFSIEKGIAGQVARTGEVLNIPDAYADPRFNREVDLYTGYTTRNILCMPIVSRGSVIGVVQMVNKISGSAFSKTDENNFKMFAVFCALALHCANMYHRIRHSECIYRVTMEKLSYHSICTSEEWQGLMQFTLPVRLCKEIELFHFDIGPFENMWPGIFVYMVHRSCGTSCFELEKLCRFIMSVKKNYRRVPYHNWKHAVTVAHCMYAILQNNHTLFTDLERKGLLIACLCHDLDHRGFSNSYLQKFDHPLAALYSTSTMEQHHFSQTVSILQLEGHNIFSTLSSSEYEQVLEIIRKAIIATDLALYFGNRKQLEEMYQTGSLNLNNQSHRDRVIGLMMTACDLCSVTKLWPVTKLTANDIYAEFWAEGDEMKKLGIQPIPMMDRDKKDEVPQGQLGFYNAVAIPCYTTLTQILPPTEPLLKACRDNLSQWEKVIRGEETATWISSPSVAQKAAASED
From the text: (§1) The IC50 values obtained by this assay represent relative measures of the respective target affinity of the compounds.

human recombinant PDE2A = human recombinant PDE2A (Homo sapiens, UniProt O00408); assay: enzyme assay, inhibitory potency for human recombinant PDE2A; assay type: biochemical; details: for Selectivity Ratio PDE10A/PDE2A: IC50 hPDE10A / IC50 hPDE2A; for pIC50: human recombinant PDE2A, enzyme assay (BioCrea), read-out: IC50 hPDE2A
human recombinant PDE2A, sequence (O00408 whole entry): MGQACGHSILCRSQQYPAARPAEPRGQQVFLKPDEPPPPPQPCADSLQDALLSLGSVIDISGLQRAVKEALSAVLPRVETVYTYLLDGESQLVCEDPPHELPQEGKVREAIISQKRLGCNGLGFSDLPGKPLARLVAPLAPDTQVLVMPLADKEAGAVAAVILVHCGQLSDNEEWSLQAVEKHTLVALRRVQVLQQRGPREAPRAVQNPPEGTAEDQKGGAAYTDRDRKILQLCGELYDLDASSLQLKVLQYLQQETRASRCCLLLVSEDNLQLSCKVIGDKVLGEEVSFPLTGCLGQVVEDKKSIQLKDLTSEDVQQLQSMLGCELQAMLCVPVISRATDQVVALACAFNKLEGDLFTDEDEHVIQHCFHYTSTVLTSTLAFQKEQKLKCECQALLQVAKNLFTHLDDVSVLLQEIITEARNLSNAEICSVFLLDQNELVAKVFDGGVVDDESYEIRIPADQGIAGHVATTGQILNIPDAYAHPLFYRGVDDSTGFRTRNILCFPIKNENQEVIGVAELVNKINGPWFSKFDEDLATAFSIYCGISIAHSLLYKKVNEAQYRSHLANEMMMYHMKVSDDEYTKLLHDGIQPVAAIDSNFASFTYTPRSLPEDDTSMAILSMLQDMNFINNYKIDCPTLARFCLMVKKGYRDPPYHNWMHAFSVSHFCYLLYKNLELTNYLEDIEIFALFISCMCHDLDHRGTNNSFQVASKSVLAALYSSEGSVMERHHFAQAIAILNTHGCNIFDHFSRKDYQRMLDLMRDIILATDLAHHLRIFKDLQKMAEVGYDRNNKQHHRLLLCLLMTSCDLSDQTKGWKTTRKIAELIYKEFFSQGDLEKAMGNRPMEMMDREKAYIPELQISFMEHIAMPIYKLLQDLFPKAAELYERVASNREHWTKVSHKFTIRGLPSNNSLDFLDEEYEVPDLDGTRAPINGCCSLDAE
From the text: as §1

[1] = parameters: method as in PMID 24189054; details: rats, cited from earlier work
hPDE10A = system: hPDE10A; parameters: method as in PMID 24189054, PMID 23651455; details: cited from earlier work
[2] = parameters: method as in PMID 24189054, PMID 23651455; details: monkeys, striatum; cited from earlier work

SMILES | pIC50 (human recombinant PDE10A) | Selectivity Ratio PDE10A/PDE2A (human recombinant PDE2A) | pIC50 (human recombinant PDE2A) | also measured
COc1ccc(Cc2nn3c(C(CCCc4ccccc4)C(C)O)nc(C)c3c(=O)[nH]2)cc1OC (centres unmarked) [BAY 60-7550] | – | – | – | pIC50 (hPDE2A; Figure 1): ~8.30
CCCCCCC(C(C)O)n1cnc2c(N)ncnc21 (stereo not drawn) [EHNA, erythro-9-(2-hydroxy-3-nonyl)-adenine] | – | – | – | pIC50 (hPDE2A; Figure 1): ~6.00
COc1ccc2nnc3c(C)nc(-c4cc(OCCF)ccc4F)n3c2n1 [TA2, 9-(2-Fluoro-5-(2-fluoroethoxy)phenyl)-2-methoxy-7-methylimidazo[5,1-c]pyrido[2,3-e] [1,2,4]triazine] | 7.11 | 7.4 | 7.98 | –
COc1ccc2nnc3c(C)nc(-c4cc(OCCCF)ccc4F)n3c2n1 [TA3] | 6.50 | 27.9 | 7.94 | –
COc1ccc2nnc3c(C)nc(-c4cc(OCCCCF)ccc4F)n3c2n1 [TA4] | 6.04 | 125.1 | 8.14 | –
Cc1nc2ccc(CN3CCOCC3)cc2n2c(-c3c([18F])cccc3Cl)nnc12 [[^18F]B-23] | – | – | – | radiometabolites detected in the brain ([1]; at 2 min p.i.): 4 % of total activity; radiometabolites detected in the brain ([1]; at 10 min p.i.): 10 % of total activity; regional accumulation in microPET imaging [1]: highest accumulation of [^18F]B-23 has been observed in the striatum
Cc1nc(-c2cnn(C)c2-c2ccc(C(F)(F)F)cc2)c2c(N3CC([18F])C3)ncnn12 [[^18F]PF-05270430] | – | – | – | pIC50 (hPDE2A; Pfizer PET ligand): 9.30; pIC50 (hPDE10A): 5.52; uptake in PET studies [2]: rapid and high uptake
